Data as given in the NIST ThermoML archive (doi:10.1021/acs.jced.5b01048).
± gives the expanded uncertainty stated by the source.

How the values were obtained:
[1] = refractive index (Na D-line) (dimensionless); conditions: 293.15 K; 101.33 kPa; Liquid; Standard Abbe refractometry
[2] = 293.15 K; 101.33 kPa; Liquid; Buoyancy - hydrostatic balance

| SMILES | refractive index [1] | mass density [2] |
| --- | --- | --- |
| C=CCO [2-propenol] | 1.4119 ± 0.0005 | 854 ± 1 kg/m3 |
| CCO [ethanol] | 1.3616 ± 0.0005 | 790 ± 1 kg/m3 |
| CO [methanol] | 1.3276 ± 0.0005 | 792.2 ± 1 kg/m3 |
| O [water] | 1.3328 ± 0.0005 | 998.4 ± 1 kg/m3 |
